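Briefly, cells in 96-well plates were exposed to five compound concentrations for 48 h, and endpoints were estimated by linear interpolation. The concentration for 50% growth inhibition is given as GI50.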 The source made the active and inactive calls. No stated cut-off is given here; in the data, active = GI50 up to about 1.1 µM and inactive = higher.
Experiments:
Assay in all cases: growth of human tumour cells (NCI), 48 h
[1] = system: A498
[2] = system: KM-20L2
[3] = system: HOP-92
[4] = system: SK-MEL-2
[5] = system: LXFL 529
[6] = system: M19-MEL
[7] = system: DLD-1
[8] = system: OVCAR-8
[9] = system: HL-60
[10] = system: UACC-62
[11] = system: U-251
[12] = system: OVCAR-3
[13] = system: HOP-18
[14] = system: MDA-N
[15] = system: T47D
[16] = system: MDA-MB-231
[17] = system: DU-145
[18] = system: PC-3
[19] = system: MCF7
[20] = system: NCI/ADR-RES

Measured: GI50

Cc1ccc([N+](=O)[O-])cc1NC(=O)C(=O)C(C(=O)c1ccccc1F)C1OC(=O)c2ccccc21 (stereo not given)
inactive: [1] 98.4 µM | [2] 34.6 µM | [3] > 100 µM | [4] 25.9 µM | [5] 34 µM | [6] 33.4 µM | [7] 41.5 µM | [8] 25.2 µM | [9] 26.9 µM | [10] 33.7 µM | [11] 18.1 µM

COc1ccccc1NC(=O)/C(=C/c1ccccc1)C(C)=O
inactive: [12] 38.6 µM | [3] 45.3 µM | [4] 38.5 µM | [5] 43.9 µM | [6] 65.2 µM | [7] 38.8 µM | [8] 37.4 µM | [9] 23.6 µM | [13] > 100 µM | [10] 32.9 µM | [11] 4.47 µM

COc1ccc(NC(=O)CC/C(CC(=O)c2ccccc2Cl)=N\Nc2nnc(C)n2N)cc1
inactive: [2] > 100 µM | [3] > 100 µM | [4] > 100 µM | [5] > 100 µM | [6] > 100 µM | [7] > 100 µM | [8] > 100 µM | [9] > 100 µM | [13] > 100 µM | [10] > 100 µM | [11] > 100 µM

C=CCNC(=S)N/N=C1\C(=O)Nc2ccc([N+](=O)[O-])cc21
inactive: [12] 69.2 µM | [1] 21.1 µM | [3] 44.2 µM | [4] > 100 µM | [14] 83 µM | [15] 25.5 µM | [16] > 100 µM | [17] 31.4 µM | [18] > 100 µM | [19] 36.1 µM | [8] 50.5 µM | [9] 54.7 µM | [10] > 100 µM | [11] 64.3 µM | [20] 17.7 µM

N#CC1(C#N)C2C=CC(C3CCC=C32)C1(C#N)C#N (stereo not given)
inactive: [12] > 10 µM | [1] > 10 µM | [3] > 10 µM | [4] > 10 µM | [14] > 10 µM | [15] > 5.33 µM | [16] > 10 µM | [17] > 10 µM | [18] > 10 µM | [19] > 8.2 µM | [8] > 10 µM | [9] 1.68 µM | [10] > 10 µM | [11] > 10 µM | [20] > 10 µM

CCN(CC)CCCC(C)Nc1cc(-c2ccccc2)nc2cc(OC)ccc12 (stereo not given)
inactive: [12] 12.2 µM | [1] 5.61 µM | [2] 2.25 µM | [3] 2.23 µM | [4] 12.6 µM | [5] 6.28 µM | [6] 10.1 µM | [9] 2.55 µM | [10] 17.6 µM | [11] 4.22 µM

COc1nc2[nH]ccc2c(=O)[nH]1
inactive: [1] > 100 µM | [2] > 100 µM | [3] > 100 µM | [4] > 100 µM | [5] > 100 µM | [7] > 100 µM | [8] > 100 µM | [9] > 100 µM | [13] 42.7 µM | [11] > 100 µM

CC(C)O/C=C1\C(=O)C2(SCCS2)[C@H]2CCCC[C@@H]12
inactive: [1] 17.7 µM | [2] 39.5 µM | [4] 34.8 µM | [5] 33.7 µM | [6] 71 µM | [7] 45.9 µM | [8] 36.6 µM | [9] 24.2 µM | [13] 44.6 µM | [10] 20.9 µM | [11] 40.5 µM

Cc1cc(N(CCC#N)S(=O)(=O)c2ccccc2)ccc1/C=N\c1cccc(C(=O)O)c1
inactive: [12] > 100 µM | [2] > 100 µM | [3] > 100 µM | [4] > 100 µM | [5] > 100 µM | [6] > 100 µM | [8] > 100 µM | [9] > 100 µM | [13] > 100 µM | [10] > 100 µM | [11] > 100 µM

OCC1OC(n2ccc3cnccc32)CC1O (stereo not given)
inactive: [12] > 100 µM | [1] > 100 µM | [3] > 100 µM | [4] > 100 µM | [5] > 100 µM | [6] > 100 µM | [7] > 100 µM | [8] > 100 µM | [9] > 100 µM | [13] > 100 µM | [10] > 100 µM | [11] > 100 µM

O=c1c2c3c(sc2nc(CN2CCNCC2)n1-c1ccccc1)CCCC3
inactive: [12] > 100 µM | [1] > 100 µM | [3] > 100 µM | [4] > 100 µM | [14] 89.1 µM | [15] 99.5 µM | [16] > 100 µM | [17] > 100 µM | [18] > 100 µM | [19] > 100 µM | [8] > 100 µM | [9] > 100 µM | [10] > 100 µM | [11] > 100 µM | [20] > 100 µM

COc1ccc(C2COc3cc(O)c(O)cc3C2)cc1 (stereo not given)
inactive: [12] 11.4 µM | [1] 9.84 µM | [2] 76.2 µM | [3] 11.6 µM | [4] 54.6 µM | [19] 37.2 µM | [6] 15.1 µM | [7] 9.93 µM | [8] 13.3 µM | [9] 1.58 µM | [13] 29.9 µM | [10] 14.1 µM | [11] 13.7 µM | [20] 11 µM

NC1CCCCC1.O=P(O)(O)C(CSc1ccccc1)P(=O)(O)O
inactive: [12] 47.9 µM | [1] > 100 µM | [2] > 100 µM | [3] > 100 µM | [4] > 100 µM | [19] > 100 µM | [6] > 100 µM | [7] > 100 µM | [8] > 100 µM | [9] > 100 µM | [13] > 100 µM | [10] > 100 µM | [11] > 100 µM | [20] > 100 µM

CN1C(=O)CN=C(c2ccccc2F)c2cc(N=C=S)ccc21
inactive: [12] 52 µM | [1] 26.8 µM | [3] 23.7 µM | [4] 92.3 µM | [14] 54.3 µM | [15] 56.8 µM | [16] 45.8 µM | [17] 86.3 µM | [18] 45.9 µM | [19] 29.5 µM | [8] 47.5 µM | [9] 34.2 µM | [10] 25.1 µM | [11] 48.4 µM | [20] 43.1 µM

O=C(c1cccs1)N(C(=S)OC12CC3CC(CC(C3)C1)C2)c1ccccc1
inactive: [12] 34.6 µM | [1] 33.2 µM | [3] 24.8 µM | [4] 18.2 µM | [14] 31.4 µM | [15] 76.7 µM | [16] 30 µM | [17] 84.7 µM | [18] 22.8 µM | [19] 30.7 µM | [8] 31.8 µM | [9] 25 µM | [10] 25.6 µM | [11] 29.1 µM | [20] 29.6 µM

Source: ChEMBL document CHEMBL1201862, “PubChem BioAssay data set” (2004)
